Results taken from ChEMBL document CHEMBL3885861, “Open TG-GATES”.

Organism: Rattus norvegicus
Test: Open TG-GATES - Regimen: Daily Repeat
Format: toxicity, organism-based, Sprague-Dawley
Parameters: regimen Daily Repeat, gender Male, age 6 weeks
Details: in vivo, po, 0 mg/kg, route gavage, dose level Control; for APTT / Bas / Eos / Fbg / Hb / Ht / Lym / MCH / MCHC / MCV / Mono / Neu / PT / Plat / RBC / Ret / WBC: tissue Blood; for KIDNEY_L / KIDNEY_R / KIDNEY_TOTAL: tissue Kidney; for LIVER: tissue Liver; for A/G / ALP / ALT / AST / BUN / CRE / Ca / Cl / DBIL / GLC / IP / K / LDH / Na / PL / RALB / TBIL / TC / TG / TP / gamma-GTP: tissue Plasma

## CC(C)C(=O)Nc1ccc([N+](=O)[O-])c(C(F)(F)F)c1 [FLUTAMIDE]
72 h, time 3 day
  TERMINAL_BW: 224.3 g
  APTT: 19 s
  Bas: 0%
  Eos: 1%
  Fbg: 219.2 mg/dL
  Hb: 13.9 g/dL
  Ht: 41.8%
  Lym: 79%
  MCH: 21.5 pg
  MCHC: 33.3%
  MCV: 64.6 fL
  Mono: 3%
  Neu: 16%
  PT: 12.4 s
  Plat: 122.4 x10_4/uL
  RBC: 648 x10_4/ul
  Ret: 5.4%
  WBC: 82.7 x10_2/uL
  KIDNEY_L: 1 g
  KIDNEY_R: 1 g
  KIDNEY_TOTAL: 2 g
  LIVER: 10.4 g
  A/G: 1.5
  ALP: 1016 IU/L
  ALT: 41.6 IU/L
  AST: 72.8 IU/L
  BUN: 13.6 mg/dL
  CRE: 0.4 mg/dL
  Ca: 10.5 mg/dL
  Cl: 103.8 meq/L
  DBIL: 0.09 mg/dL
  GLC: 220.2 mg/dL
  IP: 7.1 mg/dL
  K: 4.1 meq/L
  LDH: 204.4 IU/L
  Na: 139.8 meq/L
  PL: 139 mg/dL
  RALB: 3.3 g/dL
  TBIL: 0.1 mg/dL
  TC: 76.2 mg/dL
  TG: 71.8 mg/dL
  TP: 5.5 g/dL
  gamma-GTP: 0.8 IU/L
[…], time 7 day
  TERMINAL_BW: 253 g
  APTT: 19.5 s
  Bas: 0%
  Eos: 1%
  Fbg: 230.6 mg/dL
  Hb: 13.8 g/dL
  Ht: 40.6%
  Lym: 81.6%
  MCH: 21.1 pg
  MCHC: 33.9%
  MCV: 62.3 fL
  Mono: 2.4%
  Neu: 14.6%
  PT: 12.2 s
  Plat: 133.9 x10_4/uL
  RBC: 652.6 x10_4/ul
  Ret: 4.9%
  WBC: 141.3 x10_2/uL
  KIDNEY_L: 1.1 g
  KIDNEY_R: 1.1 g
  KIDNEY_TOTAL: 2.2 g
  LIVER: 11.7 g
  A/G: 1.6
  ALP: 743.8 IU/L
  ALT: 35.2 IU/L
  AST: 61.6 IU/L
  BUN: 15.6 mg/dL
  CRE: 0.4 mg/dL
  Ca: 10.7 mg/dL
  Cl: 103.4 meq/L
  DBIL: 0.09 mg/dL
  GLC: 214.8 mg/dL
  IP: 6.8 mg/dL
  K: 3.7 meq/L
  LDH: 167.2 IU/L
  Na: 141 meq/L
  PL: 140.4 mg/dL
  RALB: 3.6 g/dL
  TBIL: 0.2 mg/dL
  TC: 72.6 mg/dL
  TG: 82.6 mg/dL
  TP: 5.8 g/dL
  gamma-GTP: 1.2 IU/L
[…], time 14 day
  TERMINAL_BW: 303.3 g
  APTT: 20.7 s
  Bas: 0%
  Eos: 0.8%
  Fbg: 227 mg/dL
  Hb: 14.4 g/dL
  Ht: 42.3%
  Lym: 80.8%
  MCH: 20.8 pg
  MCHC: 34.1%
  MCV: 60.9 fL
  Mono: 2.4%
  Neu: 15.2%
  PT: 12.2 s
  Plat: 128 x10_4/uL
  RBC: 695 x10_4/ul
  Ret: 4.3%
  WBC: 110.8 x10_2/uL
  KIDNEY_L: 1.2 g
  KIDNEY_R: 1.2 g
  KIDNEY_TOTAL: 2.5 g
  LIVER: 13.4 g
  A/G: 1.5
  ALP: 842.2 IU/L
  ALT: 35 IU/L
  AST: 61.8 IU/L
  BUN: 14.4 mg/dL
  CRE: 0.4 mg/dL
  Ca: 10.6 mg/dL
  Cl: 103.2 meq/L
  DBIL: 0.096 mg/dL
  GLC: 202.2 mg/dL
  IP: 6.8 mg/dL
  K: 3.8 meq/L
  LDH: 150 IU/L
  Na: 141.2 meq/L
  PL: 133.4 mg/dL
  RALB: 3.5 g/dL
  TBIL: 0.2 mg/dL
  TC: 67 mg/dL
  TG: 100.4 mg/dL
  TP: 5.8 g/dL
  gamma-GTP: 0.8 IU/L
[…], time 28 day
  TERMINAL_BW: 371.7 g
  APTT: 19.6 s
  Bas: 0%
  Eos: 0.8%
  Fbg: 229.6 mg/dL
  Hb: 15.2 g/dL
  Ht: 43.5%
  Lym: 82.8%
  MCH: 19.9 pg
  MCHC: 35%
  MCV: 56.8 fL
  Mono: 2.2%
  Neu: 13.6%
  PT: 12.2 s
  Plat: 107.9 x10_4/uL
  RBC: 765.6 x10_4/ul
  Ret: 2.3%
  WBC: 122 x10_2/uL
  KIDNEY_L: 1.3 g
  KIDNEY_R: 1.3 g
  KIDNEY_TOTAL: 2.7 g
  LIVER: 15 g
  A/G: 1.4
  ALP: 578 IU/L
  ALT: 32 IU/L
  AST: 50 IU/L
  BUN: 15.8 mg/dL
  CRE: 0.5 mg/dL
  Ca: 10.3 mg/dL
  Cl: 104.6 meq/L
  DBIL: 0.072 mg/dL
  GLC: 226.2 mg/dL
  IP: 7 mg/dL
  K: 3.8 meq/L
  LDH: 121.6 IU/L
  Na: 140.8 meq/L
  PL: 130.2 mg/dL
  RALB: 3.5 g/dL
  TBIL: 0.1 mg/dL
  TC: 70.4 mg/dL
  TG: 60.8 mg/dL
  TP: 6 g/dL
  gamma-GTP: 0.8 IU/L
